The source made the active and inactive calls. The rule behind the calls is not given here.
The compounds below were run against T1, P-selectin (Homo sapiens) (UniProt P16109) (assay: Inhibition of human HL60 cell adhesion to P-selectin coated on microtiter plates assessed as reduction in adhesion at 200 uM after 3 days by calcein-AM assay relative to untreated cells). Details: HL-60.
T1 sequence (whole entry): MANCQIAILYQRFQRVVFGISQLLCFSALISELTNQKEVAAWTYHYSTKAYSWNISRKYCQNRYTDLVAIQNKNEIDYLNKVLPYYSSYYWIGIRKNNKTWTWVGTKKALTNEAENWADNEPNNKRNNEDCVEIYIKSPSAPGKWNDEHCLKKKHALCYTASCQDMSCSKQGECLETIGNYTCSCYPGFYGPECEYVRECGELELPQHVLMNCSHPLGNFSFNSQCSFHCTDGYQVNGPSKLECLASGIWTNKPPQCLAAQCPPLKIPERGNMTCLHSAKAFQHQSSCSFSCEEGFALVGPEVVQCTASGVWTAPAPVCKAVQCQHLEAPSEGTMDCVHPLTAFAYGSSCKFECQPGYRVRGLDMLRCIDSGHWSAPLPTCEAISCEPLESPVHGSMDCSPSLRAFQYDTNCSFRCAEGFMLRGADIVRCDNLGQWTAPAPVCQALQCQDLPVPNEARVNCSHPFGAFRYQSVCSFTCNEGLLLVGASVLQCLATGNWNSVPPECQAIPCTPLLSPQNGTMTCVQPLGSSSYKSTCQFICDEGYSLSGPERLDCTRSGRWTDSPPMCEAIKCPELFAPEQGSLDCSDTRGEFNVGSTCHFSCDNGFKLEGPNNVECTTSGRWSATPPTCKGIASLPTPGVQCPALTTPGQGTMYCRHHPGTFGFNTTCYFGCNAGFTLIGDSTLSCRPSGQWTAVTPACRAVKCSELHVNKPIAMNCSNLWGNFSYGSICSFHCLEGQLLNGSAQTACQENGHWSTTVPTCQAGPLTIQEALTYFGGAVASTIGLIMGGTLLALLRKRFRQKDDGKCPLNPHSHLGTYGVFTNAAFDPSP
Type: cell-based
Design: scale not given: the % may be the effect or the level left

Activity	SMILES
44%	COC(=O)[C@@]1(OC(C)=O)C[C@H](OC(C)=O)[C@@H](NC(=O)CCC(C)C)[C@H]([C@@H](OC(C)=O)[C@@H](COC(C)=O)OC(C)=O)O1
10%	COC(=O)[C@@]1(OC(C)=O)C[C@H](OC(C)=O)[C@@H](NC(=O)CC(C)C)[C@H]([C@@H](OC(C)=O)[C@@H](COC(C)=O)OC(C)=O)O1
Active	CCC(=O)N[C@H]1[C@H]([C@@H](OC(C)=O)[C@@H](COC(C)=O)OC(C)=O)O[C@@](OC(C)=O)(C(=O)OC)C[C@@H]1OC(C)=O

Continued, compound first:

SMILES	Activity
COC(=O)[C@@]1(OC(C)=O)C[C@H](OC(C)=O)[C@@H](NC(=O)CC(F)(F)F)[C@H]([C@@H](OC(C)=O)[C@@H](COC(C)=O)OC(C)=O)O1	62%
COC(=O)[C@@]1(OC(C)=O)C[C@H](OC(C)=O)[C@@H](NC(=O)CCC(F)(F)F)[C@H]([C@@H](OC(C)=O)[C@@H](COC(C)=O)OC(C)=O)O1	77%
